≈ marks a conversion by molar mass, not a printed value.

The subject of one assay is melanoma. To be noted: 50 mg/day; Thornes et al. (1994); cited from earlier work.
In another assay the target is T1, p56^lck (Homo sapiens, UniProt P06239).
T1 construct: purchased Upstate Biotechnology Inc
As to the kind of experiment: kinase assay, p56lck. It counts as biochemical. The following applies: poly [Glu,Tyr](4:1) substrate. As to the method: (§1) Purified p60^c-scr and Src-family kinases p56^lck, p56^lyn, and p55^fyn were obtained from Upstate Biotechnology Inc. Kinase assays were performed as described by A. Gezit, J. Med.

For another assay, the target named is T2, p60^c-src (Homo sapiens, UniProt P12931).
T2 construct: purchased Upstate Biotechnology Inc
Description: kinase assay, purified p60c-src, poly [Glu,Tyr](4:1) substrate. In kind it is biochemical. The following applies: for IC50, p60^c-src: purified kinase, poly [Glu,Tyr](4:1) substrate. The method, then:
as §1

In a further assay the test system is HL-60 cells. Description: cell growth inhibition, HL-60 promyelocytic leukemia. It counts as cell-based. To be noted: Homo sapiens, HL-60, 72 h; 3 days, Trypan Blue viable cell count. The method, then:
(§2) The source of the cancer cell lines were: HL-60, HT-29, and BT-20, from American Type Culture Collection, Rockville, Maryland; A-1 from Dr. M. H. Freedman, MG-63, from Dr. M. Hurley, and human fibroblast from Dr. R. Zeff. Cells were grown in the culture treated with or without various compounds for 3 days. Cells (except BT-20) were then recovered and treated with Trypan Blue and the number of viable cells counted. For BT-20 cells, a new rapid and simple method using Alamar Blue Assay was used, as described by S. A. Ahmed et al., J. Immunol. Meth., 170, 211 (1994). The symbol i on the Table indicates "not
(§3) As shown on Table 3, several compounds of formula (I) were tested for their ability to inhibit the growth of human cancer cells including promyelocytic leukemia HL-60 cells (S. J. Collins et al., Blood, 70, 1233 (1987)); acute lymphocytic leukemia A-1 cells, (S. Kamel-Reid et al., Leukemia, 6, 8 (1992)); human osteosarcoma MG-63, (A. Pirskanen et al., J. Bone and Mineral Res., 1635 (1994)); human breast carcinoma BT-20 (G. G. Castles et al., Cancer Res., 58, 5934 (1992)); and human colon adenocarcinoma HT-29 cells (R. Garcia et al., Oncogene, 6, 1983 (1991)).

Another assay concerns the target p55^fyn. As to the kind of experiment: kinase assay, p55fyn. To be noted: poly [Glu,Tyr](4:1) substrate. In kind it is biochemical. As to the method:
as §1

In assay [1] the test system is human cancer cells (HL-60, A-1, MG-63, BT-20, HT-29). As to the kind of experiment: inhibition of growth of human cancer cell lines, overall comparison. It counts as cell-based. The following applies: 9TA, 18TA compared with e.g. 9TO, 18TO. The method, then:
as §2, §3

The test system of a further assay is HT-29 cells. Description: cell growth inhibition, HT-29 colon adenocarcinoma. To be noted: Homo sapiens, HT-29, 72 h; 3 days, Trypan Blue viable cell count. In kind it is cell-based. As to the method: as §2, §3
A further assay deals with T3, p56^lyn (Homo sapiens, UniProt P07948).
T3 construct: purchased Upstate Biotechnology Inc
Description: kinase assay, p56lyn. It counts as biochemical. To be noted: poly [Glu,Tyr](4:1) substrate. As to the method: as §1

The next assay relates to A-1 cells. Description: cell growth inhibition, A-1 acute lymphocytic leukemia. In kind it is cell-based. To be noted: Homo sapiens, 72 h; 3 days, Trypan Blue viable cell count. As to the method:
as §2

T2 sequence (P12931 whole entry): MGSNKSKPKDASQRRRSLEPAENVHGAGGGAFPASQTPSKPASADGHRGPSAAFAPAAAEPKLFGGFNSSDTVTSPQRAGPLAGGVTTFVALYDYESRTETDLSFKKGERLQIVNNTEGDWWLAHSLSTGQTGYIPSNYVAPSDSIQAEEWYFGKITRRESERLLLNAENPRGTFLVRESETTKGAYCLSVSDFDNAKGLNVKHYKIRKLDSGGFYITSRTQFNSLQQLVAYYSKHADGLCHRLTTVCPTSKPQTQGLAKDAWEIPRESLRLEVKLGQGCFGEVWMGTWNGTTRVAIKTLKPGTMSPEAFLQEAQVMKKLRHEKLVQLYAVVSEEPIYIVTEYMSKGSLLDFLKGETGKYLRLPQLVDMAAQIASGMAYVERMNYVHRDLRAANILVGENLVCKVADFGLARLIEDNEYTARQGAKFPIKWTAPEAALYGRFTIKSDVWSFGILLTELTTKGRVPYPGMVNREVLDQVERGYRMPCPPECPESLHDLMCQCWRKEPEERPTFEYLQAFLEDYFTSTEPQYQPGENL
T1 sequence (P06239 whole entry, species assumed): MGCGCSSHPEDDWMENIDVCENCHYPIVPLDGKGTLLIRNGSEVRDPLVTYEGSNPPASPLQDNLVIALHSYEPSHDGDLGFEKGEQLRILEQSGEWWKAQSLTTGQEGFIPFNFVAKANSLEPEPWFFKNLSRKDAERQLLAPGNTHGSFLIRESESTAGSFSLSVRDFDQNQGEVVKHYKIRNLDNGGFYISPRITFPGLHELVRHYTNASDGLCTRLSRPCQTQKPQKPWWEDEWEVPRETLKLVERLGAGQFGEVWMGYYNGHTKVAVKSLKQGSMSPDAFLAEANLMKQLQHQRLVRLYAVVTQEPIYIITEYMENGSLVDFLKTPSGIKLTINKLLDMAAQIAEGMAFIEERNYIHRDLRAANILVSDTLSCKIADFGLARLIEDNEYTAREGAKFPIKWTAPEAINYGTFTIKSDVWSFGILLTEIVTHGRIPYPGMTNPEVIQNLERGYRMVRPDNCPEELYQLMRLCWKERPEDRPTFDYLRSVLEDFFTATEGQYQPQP
T3 sequence (P07948 whole entry, species assumed): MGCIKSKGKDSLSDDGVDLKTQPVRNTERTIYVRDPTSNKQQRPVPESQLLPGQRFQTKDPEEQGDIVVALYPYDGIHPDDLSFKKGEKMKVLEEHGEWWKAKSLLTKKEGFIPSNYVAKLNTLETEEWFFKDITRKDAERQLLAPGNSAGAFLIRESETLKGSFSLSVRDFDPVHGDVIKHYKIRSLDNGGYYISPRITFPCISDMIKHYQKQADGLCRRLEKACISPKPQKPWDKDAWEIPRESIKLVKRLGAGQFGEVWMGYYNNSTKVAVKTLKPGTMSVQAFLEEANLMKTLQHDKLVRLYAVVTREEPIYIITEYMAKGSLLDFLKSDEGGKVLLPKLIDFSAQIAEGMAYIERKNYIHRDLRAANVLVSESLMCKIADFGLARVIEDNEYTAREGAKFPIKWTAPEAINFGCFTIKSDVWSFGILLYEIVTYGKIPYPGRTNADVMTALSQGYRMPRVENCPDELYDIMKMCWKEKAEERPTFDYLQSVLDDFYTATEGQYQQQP

Consider `O=c1ccc2ccccc2o1` [coumarin], for which the “effect against melanoma (in words)” value with melanoma is “effective against melanoma”.
For the compound `N=c1oc2c(O)c(O)ccc2cc1C(=O)Nc1cccc(O)c1` [Compound 18TA], the “IC50, p56^lck” value against p56^lck was 20 µg/mL (≈ 64 µM). Also, the “inhibition of p60^c-src kinase (in words)” value against p60^c-src is on record as “strong inhibitory effect”. Also, the “fold more potent than 18AN” value on p60^c-src (p60^c-src, versus 18AN) is 88 fold. Also, on p60^c-src, the “IC50, p60^c-src” value came to 0.225 µg/mL (≈ 0.721 µM). Also, the half-maximal inhibitory concentration (IC50) with HL-60 cells is 9 µg/mL (≈ 28.8 µM); in the assay with HT-29 cells, above 20 µg/mL; in the assay on A-1 cells it was 20 µg/mL (≈ 64 µM). On p55^fyn, the “IC50, p55^fyn” value is above 20 µg/mL. In assay [1], the “inhibition of cancer cell growth (in words)” value is given as “not as potent”. Besides, the “IC50, p56^lyn” value on p56^lyn worked out at 18 µg/mL (≈ 57.6 µM).
For `N=c1oc2c(O)cccc2cc1C(=O)Nc1cccc(O)c1` [Compound 9TA], at p56^lck, the “IC50, p56^lck” value came to 0.62 µg/mL (≈ 2.09 µM). Also, the “inhibition of p60^c-src kinase (in words)” value at p60^c-src was “strong inhibitory effect”. The “IC50, p60^c-src” value on p60^c-src was found to be 0.035 µg/mL (≈ 0.118 µM). Besides, the IC50 stood at 10 µg/mL (≈ 33.8 µM) with HL-60 cells, 20 µg/mL (≈ 67.5 µM) in the assay with HT-29 cells and 6 µg/mL (≈ 20.3 µM) in the assay on A-1 cells. Moreover, the “inhibition of cancer cell growth (in words)” value in assay [1] was “not as potent”.

The values are drawn from patent US5648378A, “2-iminochromene derivatives as inhibitors of protein tyrosine kinase” (Research Corporation Technologies, Inc., priority 1995, dated 1997).
